Measured values taken from article PMC9747239, “State-selective modulation of heterotrimeric Gαs signaling with macrocyclic peptides” (Cell, 2022).
Each block holds one molecule with its values, some of them ahead of it. Where a SMILES comes first, the peptide text is derived from it. Bridges are numbered along the chain shown (N, C = ends). Where no end group is shown, it is not given here. [ ]: non-standard residue; d: D form. The star is where a group is joined. NH(CH2CH2O)2(CH2)6Cl = ClCCCCCCOCCOCCN*

B1: Biotinylated Avi-Gαs (WT), residues 7-380 of the short isoform of human Gαs (natural protein)
chain: SKTEDQRNEEKAQREANKKIEKQLQKDKQVYRATHRLLLLGAGESGKSTIVKQMRILHVNGFNGDSEKATKVQDIKNNLKEAIETIVAAMSNLVPPVELANPENQFRVDYILSVMNVPDFDFPPEFYEHAKALWEDEGVRACYERSNEYQLIDCAQYFLDKIDVIKQADYVPSDQDLLRCRVLTSGIFETKFQVDKVNFHMFDVGGQRDERRKWIQCFNDVTAIIFVVASSSYNMVIREDNQTNRLQEALNLFKSIWNNRWLRTISVILFLNKQDLLAEKVLAGKSKIEDYFPEFARYTTPEDATPEPGEDPRVTRAKYFIRDEFLRISTASGDGRHYCYPHFTCAVDTENIRRVFNDCRDIIQRMHLRQYELL
modifications: biotin on the Avi tag
notes: Gαs (GNAS), human, short isoform (380 residues), residues 7-380; Loaded with GppNHp (GNP) or GDP as the assay says; also called Biotinylated Gαs/GNP; Biotinylated Gαs/GDP; source: E. coli BL21(DE3), purified (TALON, Source-15Q, gel filtration), biotinylated with BirA; not shown: Avi tag, N-terminal, kept; His6, N-terminal, cleaved
B2: Biotinylated Avi-Gαs (WT), residues 7-380 of the short isoform of human Gαs (natural protein)
chain: B1 chain
modifications: biotin on the Avi tag (BirA)
notes: human Gαs (GNAS), short isoform, residues 7-380; Loaded with GNP (GppNHp) or GDP; the nucleotide state is told by the assay; also called Gαs/GNP; Gαs/GDP; source: E. coli BL21(DE3), purified (TALON, Drice cleavage, BirA biotinylation, Source-15Q, gel filtration); not shown: Avi tag, N-terminal, kept; His6, N-terminal, cleaved
B3: GD20 (peptide)
peptide: {CH2CO}-[dY]LITFRQWAFNLPCG
modifications: thioether N-14
notes: Selected by RaPID mRNA display; Synthesised on NovaPEG Rink Amide resin, so a C-terminal amide is surmised; source: synthetic peptide (Fmoc solid phase synthesis, cyclised, RP-HPLC)

Assays:
HeLa cells = assay: Chloroalkane penetration assay (CAPA); format: cell-based, human; details: HeLa cells expressing HaloTag, 19.5 h incubation
Procedure: The cell lines used for CAPA were HeLa cell lines, generated by Chenoweth and co-workers, that stably express HaloTag exclusively in the cytosol ([Peraro et al., 2018]). Cells were seeded in a 96-well plate the day before the experiment at a density of 4 × 10^4 cells per well. The day of the experiment the media was aspirated, and 100 μL of cyclic peptide dilutions in DMEM were added to the cells. Plate was incubated for 19.5 h at 37°C with 5% CO2. The contents of the wells were aspirated off, and wells were washed using fresh Opti-MEM for 15 min. The wash was aspirated off, and the cells were chased using 5 μM ct-TAMRA for 15 min, except for the No-ct-TAMRA control wells, which were incubated with Opti-MEM alone. The contents of the wells were aspirated and washed with fresh Opti-MEM for 30 min. After aspiration, cells were rinsed once with PBS (PBS). The cells were then trypsinized, quenched with DMEM, resuspended in PBS, and analyzed using a benchtop flow cytometer (CytoFLEX, Beckman). Final [cyclic peptide]: 0, 0.034, 0.10, 0.31, 0.93, 2.78, 8.33, 25 μM.

Gαs/GDP = biological target: T1, Gαs/GDP (Homo sapiens, UniProt P63092); assay: Bio-layer interferometry (BLI), GDP-bound Gαs; details: read-out: KD, binding to Gαs/GDP
T1 construct: hexahistidine (N, cleaved yes); made in house; host or cells: E. coli BL21(DE3)
Procedure: BLI experiments were performed using an OctetRED384 instrument from ForteBio. All experiments were performed at 25°C using BLI buffer (10 mM HEPES pH 7.4, 150 mM NaCl, 1mM MgCl2, 0.05% Tween 20, 0.1% DMSO, 0.2 mM GNP or GDP). Cyclic peptides or Gα proteins were diluted to a series of concentrations (Final concentrations were indicated in Figures) in BLI buffer plus 10 μM Biotin. Assays were conducted in Greiner 384well, black, flat bottom polypropylene plates containing the protein solutions, BLI buffer plus 10 μM Biotin for dissociation, and serial dilutions of cyclic peptides to be tested.
Biotinylated proteins or cyclic peptides were immobilized on Streptavidin biosensors by dipping sensors into plate wells containing protein solutions at a concentration of 50–150 nM. Protein loading is around 2–3 nm. Cyclic peptide loading is around 0.2–0.3 nm. Sensors loaded with proteins or cyclic peptides were moved and dipped into wells with BLI buffer plus 10 μM Biotin to block unlabeled Streptavidin. […]
Raw kinetic data collected were processed with the Data Analysis software provided by the manufacturer using single reference subtraction in which buffer-only reference was subtracted (For GN13 analysis). […] The resulting data were analyzed based on a 1:1 binding model from which kon and koff values were obtained and then Kd values were calculated.

Gαs/GDP and Gβγ(C68S) = biological target: T2, Gαs/GDP and Gβγ(C68S) (Homo sapiens, UniProt P63092); assay: FRET based Gαs/Gβγ interaction assay; format: binding
T2 construct: hexahistidine (N, cleaved yes); made in house; host or cells: E. coli BL21(DE3) (Gαs); Sf9 insect cells (Gβ1γ2)

[1] = Chemical stability assay in DMEM with 10% FBS; format: in vitro ADME; details: bovine, DMEM with 10% FBS (fetal bovine serum), 37 °C, values represent 95% confidence intervals, read-out: Half-life (hour), chemical stability in DMEM with 10% FBS
Procedure: (§1) These assays were conducted by Pharmaron Beijing CO., Ltd. Cyclic peptides working solutions were prepared at 10 μM in DMEM with 10% FBS (Avantor, Cat# 76,294–180) or human plasma (Pooled, Male & Female, BioIVT, Cat# HMN666664). The assays were performed in duplicate. Vials were incubated at 37 °C at 60 rpm in a water bath and taken at designated time points including 0, 480, 1080 and 1440 min. For each time point, the initiation of the reaction was staggered so all the time points were terminated with cold acetonitrile containing internal standards (IS, 100 nM alprazolam, 200 nM labetalol, 200 nM Imipramine and 2 μM ketoplofen) at the same time. Samples were vortexed then centrifuged at 4°C to remove proteins. The supernatants from centrifugation were diluted by ultra-pure H2O and used for LC-MS/MS analysis. All calculations were carried out using GraphPad Prism. Remaining percentages of parent compounds at each time point were estimated by determining the peak area ratios from extractedion chromatograms.

Plasma stability assay = format: in vitro ADME; details: both sexes, pooled human plasma, 37 °C, values represent 95% confidence intervals, read-out: Half-life (hour), plasma stability
Procedure: as §1

[2] = biological target: T3, Adenylyl cyclase (C1 domain of ADCY5, VC1, with C2 domain of ADCY2, IIC2) (human, UniProt O95622 442-658; Q08462 871-1082); assay: AlphaScreen or HTRF; TR-FRET competition: biotinylated GNP-bound Gαs (100 nM) with streptavidin XL665, AC (VC1 20 nM, IIC2 40 nM, forskolin 100 uM) with anti-6His-Tb cryptate, GN13 0-40,000 nM, 1 h at room temperature, 1X PBS 7.4, 0.1% BSA, 2 mM DTT, 2 mM MgCl2; details: both partners purified
T3 construct: C1 domain (VC1) of adenylyl cyclase V; C2 domain (IIC2) of human adenylyl cyclase II, residues 871-1082; Forskolin (100 uM) was present in the assay; also called AC; VC1/IIC2; source: E. coli BL21(DE3), purified (TALON, gel filtration); VC1 and IIC2 mixed with forskolin as one AC stock

[3] = biological target: T4, Adenylyl cyclase (AC): C1 domain of ADCY5 (VC1) with C2 domain of ADCY2 (IIC2), with forskolin (human, UniProt O95622 442-658; Q08462 871-1082); assay: AlphaScreen or HTRF; TR-FRET Gαs/adenylyl cyclase interaction assay: 100 nM GNP-bound biotinylated Gαs with streptavidin XL665, 20 nM VC1, 40 nM IIC2, 100 μM forskolin with anti-6His-Tb cryptate, cyclic peptide series; 1X PBS 7.4, 0.1% BSA, 2 mM DTT, 2 mM MgCl2, 1 h at room temperature; details: both partners purified
T4 construct: C1 domain of human ADCY5 (adenylyl cyclase V), residues 442-658; C2 domain of human ADCY2 (adenylyl cyclase II), residues 871-1082; In the TR-FRET assay AC was detected with anti-6His-Tb cryptate; source: E. coli BL21(DE3), each domain purified (TALON, gel filtration), mixed as an AC stock with forskolin

[4] = biological target: B1; assay: BLI; biotinylated Gαs loaded with GDP immobilised on streptavidin biosensors (2-3 nm), cyclic peptide as analyte (4.12-1000 nM), association 120 s, dissociation 120 s, 25 °C, 10 mM HEPES pH 7.4, 150 mM NaCl, 1 mM MgCl2, 0.05% Tween 20, 0.1% DMSO, 0.2 mM GDP; double reference subtraction, 1:1 binding model; details: both partners purified

cell penetration (CAPA) (HeLa cells): measurable cell penetration
Molecule: CC[C@H](C)[C@@H]1NC(=O)[C@H](C)NC(=O)[C@H](Cc2ccc(O)cc2)NC(=O)[C@H](C(C)C)NC(=O)[C@H](CO)NC(=O)[C@H](CCC(N)=O)NC(=O)[C@H](Cc2ccccc2)NC(=O)[C@@H](Cc2ccc(O)cc2)NC(=O)CSC[C@@H](C(=O)NCC(=O)NCCOCCOCCCCCCCl)NC(=O)[C@H](CC(C)C)NC(=O)[C@H]([C@@H](C)O)NC(=O)CNC(=O)[C@H](Cc2c[nH]c3ccccc23)NC1=O [ct-GN13-E3Q] ({CH2CO}-[dY]FQSVYAIWGTLCG-{NH(CH2CH2O)2(CH2)6Cl}; thioether N-13)

cell penetration (CAPA) (HeLa cells): cell permeable
Molecule: CC[C@H](C)[C@@H]1NC(=O)[C@H](CC(C)C)NC(=O)[C@@H](Cc2ccc(O)cc2)NC(=O)CSC[C@@H](C(=O)NCC(=O)NCCOCCOCCCCCCCl)NC(=O)[C@@H]2CCCN2C(=O)[C@H](CC(C)C)NC(=O)[C@H](CC(N)=O)NC(=O)[C@H](Cc2ccccc2)NC(=O)[C@H](C)NC(=O)[C@H](Cc2c[nH]c3ccccc23)NC(=O)[C@H](CCC(N)=O)NC(=O)[C@H](CCCNC(=N)N)NC(=O)[C@H](Cc2ccccc2)NC(=O)[C@H]([C@@H](C)O)NC1=O [ct-GD20] ({CH2CO}-[dY]LITFRQWAFNLPCG-{NH(CH2CH2O)2(CH2)6Cl}; thioether N-14)

cell penetration (CAPA) (HeLa cells): further improved cell penetration
Molecule: CC[C@H](C)[C@@H]1NC(=O)[C@H](CC(C)C)NC(=O)[C@@H](Cc2ccc(O)cc2)NC(=O)CSC[C@@H](C(=O)NCC(=O)NCCOCCOCCCCCCCl)NC(=O)[C@@H]2CCCN2C(=O)[C@H](CC(C)C)NC(=O)[C@H](CC(N)=O)NC(=O)[C@H](CC(C)C)NC(=O)[C@H](C)NC(=O)[C@H](Cc2c[nH]c3ccccc23)NC(=O)[C@H](CCC(N)=O)NC(=O)[C@H](CCCNC(=N)N)NC(=O)[C@H](Cc2ccccc2)NC(=O)[C@H]([C@@H](C)O)NC1=O [ct-GD20-F10L] ({CH2CO}-[dY]LITFRQWALNLPCG-{NH(CH2CH2O)2(CH2)6Cl}; thioether N-14)

Molecule: CC[C@H](C)[C@@H]1NC(=O)[C@H](CC(C)C)NC(=O)[C@@H](Cc2ccc(O)cc2)NC(=O)CSC[C@@H](C(=O)NCC(N)=O)NC(=O)[C@@H]2CCCN2C(=O)[C@H](CC(C)C)NC(=O)[C@H](CC(N)=O)NC(=O)[C@H](CC(C)C)NC(=O)[C@H](C)NC(=O)[C@H](Cc2c[nH]c3ccccc23)NC(=O)[C@H](CCC(N)=O)NC(=O)[C@H](CCCNC(=N)N)NC(=O)[C@H](Cc2ccccc2)NC(=O)[C@H]([C@@H](C)O)NC1=O [cpGD20] ({CH2CO}-[dY]LITFRQWALNLPCG-NH2; thioether N-14)
Kd (Gαs/GDP): 14.5 ± 0.4 nM | IC50 (Gαs/GDP and Gβγ(C68S)): 14 ± 0.6 nM | half-life at 10 μM [1]: 37.4 to 50.3 h | half-life at 10 μM (Plasma stability assay): 7.16 to 12.7 h

Molecule: B1
binding result [2]: binds

Molecule: B2
binding result [3]: binds

Molecule: B3
koff [4]: 0.00343 s⁻¹ | kon [4]: 109000 M⁻¹ s⁻¹
